From PubChem BioAssay (NCI) come the findings set out here.

The subject of the experiment is MDA-MB-468 breast. Briefly: NCI anticancer screen, dose series, 48 h.

The structures appear in SMILES notation. Where “and” joins values, the source holds several entries; their conditions need not be identical. Equal values may be shown once.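 96-well plates; 48 h exposure; 5 concentrations. Endpoints by linear interpolation between flanking doses. Not reached: highest tested concentration assigned. At the GI50, growth is halved. TGI: total growth inhibition.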

As for `COc1ccc(C(=O)Cn2c(C(=O)c3ccc(Cl)cc3)nc3ccccc32)cc1`, the GI50 is 6.13 µM and the TGI was more than 100 µM.

For `O=C(/C=C/c1ccco1)c1ccc(Nc2nc(Nc3ccc(F)cc3)nc(Nc3ccc(Cl)cc3)n2)cc1`, the GI50 was 22.8 µM and the TGI is more than 100 µM.

In the case of `C=C1C(=O)O[C@H]2[C@H]1CC/C(COC(=O)C(=O)c1c[nH]c3ccccc13)=C\CC[C@@]1(C)O[C@@H]21`, the GI50 was 1.98 µM and the TGI came out at 3.84 µM.

With `Nc1c(C(=O)Nc2ccccc2)sc2nc3c(cc12)CCCCCC3`, the GI50 is 0.312 µM and the TGI came to 3.73 µM.

Consider `COc1ccc(C(=O)Cn2c(C(=O)c3ccc(OC)cc3)nc3ccccc32)cc1`, for which the GI50 is 0.431 µM and the TGI is more than 22.8 µM.

For the molecule `CCN(CC)c1ccc(/C=N/NC(=O)c2ccc(S(N)(=O)=O)cc2)cc1`, the GI50 was 0.376 µM and the TGI came out at 3.66 µM.

Turning to `CCn1c(=O)c(-c2ccn[nH]2)cc2c(C)nc(N)nc21`, the GI50 is 0.861 µM and the TGI was 6.25 µM.

With `CC/C=C\C[C@H](O)C/C=C1/C(=O)C=C[C@@H]1C/C=C\CCCC(=O)NC(C)C`, the GI50 is 1.67 µM and the TGI stood at 3.89 µM.

Consider `CCNC(=O)C[C@@H]1N=C(c2ccc(Cl)cc2)c2cc(OC)ccc2-n2c(C)nnc21`, for which the GI50 was 2.88 µM and the TGI is more than 100 µM.

With `O=C(Nc1ccc(S(=O)(=O)Nc2nccs2)cc1)c1cccnc1Nc1cccc(Cl)c1`, the GI50 is 13.9 µM and the TGI was determined as 52.2 µM.

For the molecule `Cc1ccc(Nc2nc(NCCO)c3ccccc3n2)cc1C`, the GI50 was 0.402 µM and the TGI was determined as 3.13 µM.

As for `CS(=O)(=O)c1ccc(Oc2cc(F)cc(C#N)c2)c2c1[C@H](O)[C@H](F)[C@@H]2F`, the GI50 is more than 100 µM and the TGI was more than 100 µM.

Turning to `COc1ccc(CN2C(=O)/C(=C\c3cc(OC)c(OC)c(OC)c3)c3cc(OC)ccc32)cc1`, the GI50 is 1.94 µM and the TGI was determined as 4.52 µM.

For the molecule `Cn1ccnc1C(=O)/C=C/c1ccc(CC(=O)Nc2ccc(Cl)cc2)cc1`, the GI50 is 1.03 µM and the TGI stood at 11.3 µM.

As for `N#CC1=C(N)Oc2cc3c(cc2C1c1cccs1)OCO3` (configuration not stated), the GI50 was 0.219 µM and the TGI amounted to 3.03 µM.

With `COC(=O)/C=C/c1cc(O)c2c(c1)C(C(=O)OC)C(c1ccc(O)c(O)c1)O2` (configuration not stated), the GI50 was 0.521 µM and 0.646 µM; the TGI is 9.94 µM and 11.3 µM.

For `Cn1c(C(N)=O)cc2c1-c1nc(Nc3ccccc3)ncc1CCC2`, the GI50 is 3.52 µM and the TGI was 15 µM.

`CCN1C(=O)C/C(=C\C(C)=O)Nc2ccccc21`: the GI50 is more than 100 µM and the TGI is more than 100 µM.

As for `CCc1ccc(-c2nnc(COc3ccc(-c4nc5ccc(C)cc5[nH]4)cc3OC)o2)cc1`, the GI50 is 3.26 µM and the TGI worked out at 16.3 µM.

On to `CC(=O)Oc1ccccc1C(=O)Nc1ccc(C(=O)/C=C/c2ccncc2)cc1`, for which the GI50 is 22.3 µM and the TGI is 98 µM.

`O=C(Nc1ccc(-c2nc3cc4ccccc4cc3[nH]2)cc1)c1cccc(Br)c1`: the GI50 is 2.41 µM and the TGI was 6.54 µM.

Turning to `COc1cc(/C=C(/C)[N+](=O)[O-])ccc1O`, the GI50 was 1.58 µM and 1.78 µM; the TGI is 3.2 µM and 3.62 µM.

Turning to `CCCCCCCCCCCCN1C(C)=CS/C1=C\C=C\c1scc(C)[n+]1CCCCCCCCCCCC`, the GI50 was 0.251 µM and the TGI is 1.39 µM.

Take `CC(C)(C)Nc1nc2c(OCCc3ccccc3)cccn2c1-c1ccccc1Cl`: the GI50 is 2.5 µM and the TGI was determined as 9.17 µM.

`CNc1ccccc1C(=O)N/N=C/C=C/c1ccccc1`: the GI50 was 0.503 µM and the TGI was 15.1 µM.

For `CN1CCN(Cc2ccc(-c3cc4ncnc(Nc5ccc(OCc6cccc(F)c6)c(Cl)c5)c4s3)o2)CC1`, the GI50 was 0.292 µM and the TGI is 3.22 µM.

Regarding `O=C(Nc1ccc(Cl)c([N+](=O)[O-])c1)Nc1nc2ccccc2s1`, the GI50 was 3.53 µM and the TGI came out at 9.76 µM.

With `CC(C)C[C@@H](NC(=O)[C@@H](Cc1ccccc1)NC(=O)c1cnccn1)B1O[C@H]2[C@H](O)[C@@H](C(=O)NCCCC[C@@H]3NC(=O)[C@@H](Cc4ccccc4)NC(=O)[C@H](CC(=O)O)NC(=O)CNC(=O)[C@H](CCCN=C(N)N)NC3=O)O[C@@H](CN)[C@H]2O1`, the GI50 was 0.00293 µM and 0.005 µM; the TGI was 0.00906 µM and 0.00535 µM.

With `O=C1/C(=C/c2cccc([N+](=O)[O-])c2)COc2ccc(O)c(O)c21`, the GI50 is 1.33 µM and the TGI was found to be 3.12 µM.

Turning to `OC(c1cc2cc(Br)ccc2c2cc(Br)ccc12)C1CCCCN1` (configuration not stated), the GI50 is 1.63 µM and the TGI came out at 3.08 µM.

`Cc1ccc(S(=O)ON2CCC(C(=O)O)(c3ccccc3)CC2)cc1` (configuration not stated): the GI50 is more than 100 µM and the TGI was more than 100 µM.

Turning to `O=[N+]([O-])c1ccc(N2CCN(Cc3ccccc3)CC2)c2c1no[n+]2[O-]`, the GI50 is 1.12 µM and the TGI was 2.68 µM.

Turning to `Oc1c(CN2CCC(N3CCOCC3)CC2)cc(Cc2cc(CN3CCC(N4CCOCC4)CC3)c(O)c3ncccc23)c2cccnc12`, the GI50 is 1.7 µM and the TGI stood at 6.6 µM.

For the molecule `COc1cccc(-c2nn(-c3ccccc3)cc2-c2ccnc(NCCNS(=O)(=O)c3ccc(Cl)cc3)c2)c1`, the GI50 was 3.9 µM and the TGI came out at 64.6 µM.

As to `CC(C)C[C@H](NC(=O)[C@H](Cc1ccccc1)n1ccc(N2CCCCC2)cc1=O)B(O)O`, the GI50 is 0.264 µM and the TGI amounted to 0.745 µM.

In the case of `O=[N+]([O-])c1cnc(Sc2ccncn2)c([N+](=O)[O-])c1`, the GI50 is 1.72 µM and the TGI came out at 3.55 µM.
